Experimental data taken from patent US10981932B2, “Macrocyclic indole derivatives” (Bayer Aktiengesellschaft, priority 2016, dated 2021).
Where a name gives a salt, the structure may show the parent alone. Read-outs that look alike come from different tables or passages of the source.

Experiments:
[1] = system: SUDHL5; assay: Anti-proliferative effect (CellTiter-Glo, 72 h), SUDHL5; format: cell-based; conditions: SUDHL5 cells, antiproliferation, median, read-out: Antiproli SUDHL5 [M] (median)
Experimental: (§1) Assessment of the Anti-Proliferative Effect of Compounds in Different Cell Lines
(§2) The impact of compounds on the proliferation of different cell lines was assessed using the CellTiter-Glo® Luminescent Cell Viability reagent from Promega (G7573). Of note, SUDHL10 and SUDHL5 (DLBCL), NCI-H929 (Multiple Myeloma), A2780 (ovarian carcinoma) as well as MV-4-11(AML) cells are sensitive to MCL-1 inhibition.
(§3) In parallel, cells were plated in a reference (day 0) plate for time zero determination.
(§4) Rim wells were excluded. The cells were incubated for 72 h hours in a humidified incubator at 37° C. The day 0 plate was measured by adding 30 μl/well of CTG solution (CellTiter-Glo® Luminescent Cell Viability reagent, Promega G7573) to time zero wells in the reference plate followed by a 10 minutes incubation and luminescence reading at 0.1 ms, using the PHERAstar FS microplate reader (BMG Labtech).
(§5) After 72 h incubation, the treated plates were measured in the same way as the day 0 plate mentioned above.

[2] = system: SUDHL10; assay: Induction of cytotoxicity (CellTiter-Glo, 5 h), SUDHL10
[3] = system: A2780; assay: Anti-proliferative effect (CellTiter-Glo, 72 h), A2780; format: cell-based; conditions: A2780 cells, median, read-out: IC50 antiproliferation assay A2780 [M] (median)
Experimental: as §1, §2, §3, §4, §5

[4] = system: SUDHL5; assay: Induction of cytotoxicity (CellTiter-Glo, 5 h), SUDHL5
[5] = biological target: MCL-1 (Homo sapiens, UniProt Q07820); assay: Protein-protein interaction assay MCL-1/Noxa BH3 peptide (MCL-1 assay), TR-FRET; format: binding; conditions: MBP-MCL-1 / Noxa BH3-derived peptide, median
Sequence of MCL-1 (Q07820 whole entry): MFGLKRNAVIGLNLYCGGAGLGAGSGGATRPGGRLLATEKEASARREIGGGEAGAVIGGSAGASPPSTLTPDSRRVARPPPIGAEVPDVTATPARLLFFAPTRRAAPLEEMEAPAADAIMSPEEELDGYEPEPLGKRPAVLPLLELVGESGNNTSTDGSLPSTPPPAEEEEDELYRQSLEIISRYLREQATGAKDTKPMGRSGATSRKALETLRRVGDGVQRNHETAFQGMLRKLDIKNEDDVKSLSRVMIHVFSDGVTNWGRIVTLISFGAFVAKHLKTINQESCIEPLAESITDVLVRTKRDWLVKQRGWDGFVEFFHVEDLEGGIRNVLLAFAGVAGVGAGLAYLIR
Experimental: Protein-Protein Interaction Assay: MCL-1/Noxa BH3 Peptide (MCL-1 Assay) […]
In the assay 11 different concentrations of each compound (0.1 nM, 0.33 nM, 1.1 nM, 3.8 nM, 13 nM, 44 nM, 0.15 μM, 0.51 μM, 1.7 μM, 5.9 μM and 20 μM) were typically measured as duplicates in the same microtiter plate. For that, 100-fold concentrated DMSO solutions were prepared by serial dilutions (1:3.4) of a 2 mM stock solution in a clear, 384-well microtiter plate (Greiner Bio-One, Frickenhausen, Germany). From there, 50 ni were transferred in a dark test plate (Greiner Bio-One, Frickenhausen, Germany). The assay was initiated by addition of 2 μl of a 2.5-fold concentrated MBP-MCL-1 solution (usually for a 1 nM end concentration in 5 μl reaction volume) in aqueous assay buffer [50 mM Tris/HCl pH 7, 100 mM sodium chloride (NaCl), 50 mM potassium fluoride (KF), 0.005% Tween-20, 2 mM DTT, 0.1% bovine gamma globulin (BGG)] to the compounds in the assay plate. This was followed by a 10-minute incubation step at 22° C. for pre-equilibration of the putative complex between MBP-MCL-1 and the compounds. After that.
The mixture was incubated in the dark for one hour at 22° C. and then overnight at 4° C. The formation of MCL-1/Noxa complexes was determined by measuring the resonance energy transfer of the anti-MBP- Eu-cryptate antibody to the streptavidin-XL665 present in the reaction. For that purpose, the fluorescence emission at 620 nm and 665 nm after excitation at 330-350 nm was measured in a TR-FRET measuring instrument, for instance a Rubystar or a Pherastar (both from BMG Lab Technologies, Offenburg, Germany) or a Viewlux (Perkin-Elmer). The ratio of the emission at 665 nm and at 622 nm was used as indicator of the amount of MCL-1/NOXA complexes present.
The resulting data (ratio) were normalized, taking 0% inhibition as the mean value of control measurements (usually 32 data points) where all reagents were included. In this case 50 nl DMSO were used instead of compounds. A 100% inhibition corresponded to the mean value of control measurements (usually 32 data points) where all reagents except MCL-1 were included. IC50 values were determined by regression analysis based on a 4 parameter equation (minimum, maximum, IC50, Hill; Y=Max+(Min−Max)/(1+(X/IC50)^Hill) using the Screener Software (Genedata).

[6] = system: SUDHL5; assay: Induction of caspase-3/7 activity (Caspase-Glo 3/7), SUDHL5; format: cell-based; conditions: caspase-3/7 induction, SUDHL5 cells, 3 h treatment, median
Experimental: (§6) Induction of Caspase-317 Activity Upon Treatment of Cells with Selected Compounds
(§7) The BH3-domain of MCL-1 sequesters pro-apoptotic proteins, thereby inhibiting apoptosis. In contrast, MCL-1 inhibitors are expected to antagonize this effect leading to an increase in apoptosis, which can be determined by measuring the activity of caspase-3/7.
(§8) The activity of caspase-3/7 was determined in DLBCL (Diffuse large B-cell lymphoma) cell lines (SUDHL5 and SUDHL10) upon treatment with different compounds, using the Caspase-Glo® 3/7 reagent from Promega (G8092).
(§9) Rim wells were excluded. The cells were incubated for 3 h hours in a humidified incubator at 37° C.
(§10) For the evaluation of the results, the background measured with “medium-only” was subtracted from all other values. […] The Bella DRC Master Sheet was used to calculate EC50s, with fixed C0=1 and CI=plateaulmax induction for the reference compound.

[7] = system: SUDHL10; assay: Induction of caspase-3/7 activity (Caspase-Glo 3/7), SUDHL10; format: cell-based; conditions: caspase-3/7 induction, SUDHL10 cells, 3 h treatment, median
Experimental: as §6, §7, §8, §9, §10

[8] = Homo sapiens, SU-DHL-5, 72 h, 72 h incubation
[9] = Homo sapiens, SU-DHL10, 5 h, read-out: Cytotox SUDHL10 [M] (median), SUDHL10 cells, cytotoxicity induction, CellTiter-Glo, 5 h incubation, median
[10] = Homo sapiens, SU-DHL-5, 5 h, read-out: Cytotox SUDHL5 [M] (median), SUDHL5 cells, cytotoxicity induction, CellTiter-Glo, 5 h incubation, median
[11] = read-out: Cytotox SUDHL10 [M] (median), SUDHL10 cells, cytotoxicity induction, CellTiter-Glo, 5 h incubation, median
[12] = read-out: Cytotox SUDHL5 [M] (median), SUDHL5 cells, cytotoxicity induction, CellTiter-Glo, 5 h incubation, median

With `Cc1c2c(nn1CCN(C)C)COCCCCn1c(C(=O)O)c(CCCOc3cccc4ccccc34)c3cccc-2c31` (racemic) [Example 243, (rac)-2-[2-(dimethylamino)ethyl]-3-methy-7-[3-(naphthalen-1-yloxy)propyl]-2,10,11,12,13,15-hexahydropyrazolo[4′,3′:9,10][1,6]oxazacycloundecino[8,7,6-hi]indole-8-carboxylic Acid Trifluoroacetic Acid Salt] the IC50 [1, 8] was 1.11e-05 M, the IC50 [2, 9] was 1.46e-05 M and the IC50 ([3]; Homo sapiens, A2780, 72 h) was 1.43e-05 M. For the same molecule, the IC50 [4, 10] was 6.44e-06 M, the IC50 [5] was 0.00778 µM and the EC50 ([6]; Homo sapiens, SU-DHL-5, 3 h) was 7.09 µM. It also gave an EC50 ([7]; Homo sapiens, SU-DHL10, 3 h) of 16.5 µM.

With `CCc1nn(C)c2c1-c1c(C)ccc3c(C(C)CCOc4cccc5cc(F)ccc45)c(C(=O)O)n(c13)CCCCOC2` (single isomer, unassigned) [Example 262, 3-ethyl-7-{4-[(6-fluoronaphthalen-1-yl)oxy]butan-2-yl}-1,4-dimethyl-1,10,11,12,13,15-hexahydropyrazolo[4′,3′:9,10][1,6]oxazacycloundecino[8,7,6-hi]indole-8-carboxylic Acid] the IC50 ([1]; 72 h incubation) was 4.2e-06 M, the IC50 [2, 11] was 2.15e-05 M and the IC50 [3] was 7.54e-06 M. It also gave an IC50 [4, 12] of 1.67e-05 M, an IC50 [5] of 0.0388 µM and an EC50 [6] of 22.6 µM. The EC50 [7] was > 33 µM.

In the case of `Cc1nn(C)c2c1-c1cccc3c(CCCOc4cccc5ccccc45)c(C(=O)O)n(c13)CCCN(c1ccc(N3CCN(S(=O)(=O)N(C)C)CC3)cc1)C2` (single isomer, unassigned; enantiomer 1) [Example 1-106, 7-{4-[4-(Dimethylsulfamoyl)piperazin-1-yl]phenyl}-9,11-dimethyl-1-[3-(1-naphthyloxy)propyf]-4,5,6,7,8,9-hexahydropyrazolo[3′,4′:7,8][1,5]diazecino[9,10,1-hi]indole-2-carboxylic Acid (Enantiomer 1)], the IC50 [1, 8] is reported as 4.15e-06 M, the IC50 [2, 9] is reported as 1.89e-05 M and the IC50 ([3]; Homo sapiens, A2780, 72 h) is reported as 8.83e-06 M. The IC50 [4, 12] was 1.49e-05 M, the IC50 [5] was 0.0163 µM and the EC50 [6] was 11.5 µM. It also gave an EC50 [7] of 9.37 µM.

In the case of `CCc1c2c(nn1C)COCCCCn1c(C(=O)O)c(CCCOc3cccc4ccccc34)c3ccc(C)c-2c31` (single isomer, unassigned; enantiomer 2) [Example 155, 3-Ethyl-2,4-dimethyl-7-[3-(1-naphthyloxy)propyl]-2,10,11,12,13,15-hexahydropyrazolo[4′,3′:9,10][1,6]oxazacycloundecino[8,7,6-hi]indole-8-carboxylic acid-N-ethylethanamine Salt (Enantiomer 2)], the IC50 ([1]; 72 h incubation) is reported as 8.34e-06 M, the IC50 [2, 11] is reported as > 3.3e-05 M and the IC50 [3] is reported as 2.25e-05 M. For the same molecule, the IC50 [4, 12] was > 3.3e-05 M, the IC50 [5] was 0.048 µM and the EC50 [6] was > 33 µM. For the same molecule, the EC50 [7] was > 33 µM.

`Cc1c2c(nn1CC(F)(F)F)COC/C=C\Cn1c(C(=O)O)c(CCCOc3cccc4ccccc34)c3cccc-2c31` (racemic) [Example 091, (rac)-(11Z)-3-methyl-7-[3-(naphthalen-1-yloxy)propyl]-2-(2,2,2-trifluoroethyl)-2,10,13,15-tetrahydropyrazolo[4′,3′:9,10][1,6]oxazacycloundecino[8,7,6-hi]indole-8-carboxylic Acid] showed an IC50 [1, 8] of 6.92e-06 M, an IC50 [2, 9] of 1.89e-05 M and an IC50 ([3]; Homo sapiens, A2780, 72 h) of 7.1e-06 M. It also gave an IC50 [4, 10] of 1.48e-05 M, an IC50 [5] of 0.0202 µM and an EC50 ([6]; Homo sapiens, SU-DHL-5, 3 h) of 23.5 µM. It also gave an EC50 ([7]; Homo sapiens, SU-DHL10, 3 h) of 31.8 µM.

For `CN1CCN(Cc2c3c(nn2C)COC/C=C\Cn2c(C(=O)O)c(CCCOc4cccc5ccccc45)c4cccc-3c42)CC1` (racemic) [Example 358, (rac)-(11 Z)-2-methyl-3-[(4-methylpiperazin-1-yl)methyl]-7-[3-(naphthalen-1-yloxy)propyl]-2,10,13,15-tetrahydropyrazolo[4′,3′:9,10][1,6]oxazacycloundecino[8,7,6-hi]indole-8-carboxylic Acid], the IC50 ([1]; Homo sapiens, SU-DHL-5, 72 h, 72 h) was 2.06e-05 M, the IC50 ([2]; Homo sapiens, SU-DHL10, 5 h, read-out: Cytotox SUDHL10 [M] (median), SUDHL10 cells, cytotoxicity induction, CellTiter-Glo, 5 h, median) was > 3.3e-05 M and the IC50 ([3]; Homo sapiens, A2780, 72 h) was 1.2e-05 M. The IC50 ([4]; Homo sapiens, SU-DHL-5, 5 h, read-out: Cytotox SUDHL5 [M] (median), SUDHL5 cells, cytotoxicity induction, CellTiter-Glo, 5 h, median) was > 3.3e-05 M, the IC50 [5] was 0.0173 µM and the EC50 ([6]; Homo sapiens, SU-DHL-5, 3 h) was > 33 µM. The EC50 ([7]; Homo sapiens, SU-DHL10, 3 h) was > 33 µM.
